Values quoted from earlier work, collected in patent US5200396A, “Method of treating neurodegenerative disorders using epidermal growth factor” (Zambon Group S.p.A., priority 1990, dated 1993).

Test system: rats with lesion of the nigrostriatal pathway
Settings: lesion of the nigrostriatal pathway model; Brain Research, 459, 398, (1988)

NGF: growth factor acting as trophic factor towards some neuronal types
efficacy in changing the rotational behaviour of the animal: did not show, in practice, any efficacy
